Data from publication PMC10792010, “Analysis of vitamin D receptor binding affinities of enzymatically synthesized triterpenes including ambrein and unnatural onoceroids” (Scientific Reports, 2024).
Entries after “also recorded” stand apart in the source; their conditions may differ. Like-named read-outs stand apart in the source and are kept apart here.

Key:
human VDR = molecular target: T1, human VDR (Homo sapiens, UniProt P11473); experiment: VDR binding affinity, split-luciferase vitamin D biosensor; conditions: for Relative binding affinity: normalized to that of 1; for VDR binding affinity (in words): comparison between compounds, Fig. 3a
T1 construct: made in house; host or cells: E. coli (cell lysate used)
T1 sequence (P11473 127-423 limits assumed): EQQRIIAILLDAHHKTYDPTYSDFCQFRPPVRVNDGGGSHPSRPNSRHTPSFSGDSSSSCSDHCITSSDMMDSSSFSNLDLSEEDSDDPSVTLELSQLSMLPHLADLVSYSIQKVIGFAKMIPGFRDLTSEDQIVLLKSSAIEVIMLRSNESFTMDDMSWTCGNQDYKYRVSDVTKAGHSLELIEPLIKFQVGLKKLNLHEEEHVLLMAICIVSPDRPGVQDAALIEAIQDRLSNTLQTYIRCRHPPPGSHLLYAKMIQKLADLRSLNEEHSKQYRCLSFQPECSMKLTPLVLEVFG
Procedure: The binding affinity of each compound for the human VDR was evaluated as described previously[10],[19]. In brief, 49 μL of cell lysate derived from recombinant E. coli expressing split-luciferase vitamin D biosensor protein was added to individual wells of a 96-well plate. Next, 1 μL of ethanol solution of each compound at appropriate concentrations was added to each well and incubated for 30 min at 25 °C. Subsequently, 50 μL of the Luciferin solution containing 20 mM of MgSO4, 2 mM of D-luciferin, and 4 mM of adenosine triphosphate in 25 mM Tris–HCl (pH 7.4) was introduced into each well and incubated for 30 min at 25 °C. The luminescence (photon counts) was measured using a luminometer (Infinite 200 Pro 96-microplate luminometer, Tecan, Switzerland). […] X values were calculated using the following equation: X=10^logA/B×50-C/D-C+logB.
In this equation, A and B correspond to concentrations near 50% of the maximum relative light intensity. C and D represent the relative light intensity (%) at concentrations B and A, respectively.

RAW264.7 cells = experiment: Osteoclastic differentiation-promoting activity (TRAP-positive multinucleated osteoclasts); format: cell-based; conditions: sRANKL 100 ng/mL, 4 days; relative to 50 μM 1, Fig. 4
Procedure: RAW264.7 cells were used as pre-osteoclastic cells. Cells were cultured in α-MEM medium containing 10% fetal bovine serum, 2 mM L-glutamine, 100 U/mL penicillin, and 100 μg/mL streptomycin. Osteoclastic differentiation was induced following treatment with 100 ng/mL sRANKL (Oriental Yeast, Japan), and each sample was added to the medium and incubated for 4 days with 5% CO2 at 37 °C. Cells were fixed in 10% glutaraldehyde for 15 min at 37 °C and subsequently incubated for 10 min at 37 °C in tartrate-resistant acid phosphatase (TRAP) buffer, containing 0.1 M sodium acetate, 0.1 M acetic acid, 10 mg/mL naphthol AS-MX phosphate, 0.1% Triton X-100, 0.3 M potassium tartrate, and 0.3 mg/mL Fast Red Violet LB Salt. TRAP-positive dark-red cells with more than three nuclei were manually counted under a light microscope (20× objective) as multinucleated osteoclasts. Y-27632[22] was used as a positive control.

[1] = split-luciferase biosensor lysate, 25 °C, mean ± SD of at least triplicate determinations, read-out: Concentration at 50% maximum light intensity

Structure (SMILES) | Relative binding affinity (human VDR) | EC50 (human VDR; [1]) [µM] | EC50 (human VDR; Fig. 2b, Table S1, read-out: EC50 value (VDR binding affinity)) [µM] | relative intensity at a concentration of 100 μM (human VDR; 100 μM, relative light intensity compared to control (1% ethanol)) | VDR binding affinity (in words) (human VDR) | osteoclastic differentiation-promoting activity (in words) (RAW264.7 cells)
C=C1CCC(O)CC1=CC=C1CCCC2(C)C1CCC2C(C)CCCC(C)(C)O (stereo not shown) [VD-II, 25-hydroxyvitamin D3, reference compound] | 1510 | 0.074 ± 0.015 |  |  |  | 
C=C1CCCC(C)(C)[C@@H]1CC/C(C)=C/CC[C@@H]1[C@@]2(C)CCCC(C)(C)[C@@H]2CC[C@@]1(C)O [compound 1, ambrein] | 1 |  | 112 ± 29 |  |  | 
CC(C)=CCC/C(C)=C/CC/C(C)=C/CC[C@@H]1[C@@]2(C)CCCC(C)(C)[C@@H]2CC[C@@]1(C)O [compound 3] | 0.88 | 128 ± 38 |  |  |  | no activity
C=C1CCCC(C)(C)C1CC/C(C)=C/CC/C=C(\C)CC/C=C(\C)CCC=C(C)C (stereo not shown) [compound 4] |  |  |  | 0.82 ± 0.07 | did not bind to the VDR; also recorded: very low VDR binding affinity | 
C=C1CC[C@H]2C(C)(C)CCC[C@]2(C)[C@H]1CC[C@@H]1[C@@]2(C)CCCC(C)(C)[C@@H]2CC[C@@]1(C)O [compound 6] | 10 | 11.1 ± 1.5 |  |  | tenfold higher than that of 1 | not comparable to that of 1
C/C(=C\CC[C@@H]1[C@@]2(C)CCCC(C)(C)[C@@H]2CC[C@@]1(C)O)CC[C@H]1C(C)(C)CCC[C@]1(C)O [compound 10] | 4.6 | 24.6 ± 8.2 |  |  |  | 
C=C1CC[C@H](O)C(C)(C)[C@@H]1CC/C(C)=C/CC[C@@H]1[C@@]2(C)CCCC(C)(C)[C@@H]2CC[C@@]1(C)O [compound 15] | 2.5 | 45.2 ± 17.1 |  |  |  | 

Second part, led by results:

Relative binding affinity (human VDR) | EC50 (human VDR; [1]) [µM] | EC50 (human VDR; Fig. 2b, Table S1, read-out: EC50 value (VDR binding affinity)) [µM] | relative intensity at a concentration of 100 μM (human VDR; 100 μM, relative light intensity compared to control (1% ethanol)) | VDR binding affinity (in words) (human VDR) | Structure (SMILES) | osteoclastic differentiation-promoting activity (in words) (RAW264.7 cells)
8.9 | 12.6 ± 2.1 |  |  | higher affinity than 10 and 15 | CC1=CC[C@H]2C(C)(C)CCC[C@]2(C)[C@H]1CC[C@@H]1[C@@]2(C)CCCC(C)(C)[C@@H]2CC[C@@]1(C)O [compound 11] | 
7.0 | 16 ± 2.2 |  |  | higher affinity than 10 and 15 | C=C1CCCC(C)(C)[C@@H]1CC/C(C)=C/CC[C@H]1C(=C)CC[C@H]2C(C)(C)CCC[C@]12C [compound 13] | 
 | 13.9 ± 2.5 |  |  | higher affinity than 10 and 15 | C=C1CC[C@H]2C(C)(C)[C@@H](O)CC[C@]2(C)[C@H]1CC[C@@H]1[C@@]2(C)CCCC(C)(C)[C@@H]2CC[C@@]1(C)O [compound 14] | 
